Laboratory results: patent publication US4314989A, “Methionine sulfoxide amflioration of acetaminophen toxicity” (priority 1980, dated 1982)

How the values were obtained:
hamsters [1] = assay: Enhancement of acetaminophen toxicity by BHA and protection by methionine sulfoxide in hamsters; assay type: in vivo, hamster
Procedure: Hamsters weighing about 70 gm. each were divided into five groups of animals. […] All deaths occurred within 48 hours. The survivors all were alive one week later when examined again.
Methionine sulfoxide protects the hamsters against the enhanced acetaminophen toxicity up to dosages of about 200 mg/kg of BHA.

[2] = system: acetaminophen hepatotoxicity; assay: Effect of BHT and BHA on hepatotoxicity of acetaminophen (general finding); settings: in vivo
Description: Because the general population consumes large amounts of these chemicals daily, because of their presence in a wide variety of food products, the likelihood of an increased incidence of hepatoxicity in persons taking repeated dosages of acetaminophen is self-evident.

hamsters [3] = assay: Enhancement of acetaminophen toxicity by BHT and protection by methionine sulfoxide in hamsters; assay type: in vivo, hamster
Procedure: (§1) Hamsters weighing about 70 gm. each were divided into five groups of animals. An aqueous solution (ca. 0.7 ml) of […]. (600 mg/kg) of acetaminophen and an amount of methionine sulfoxide listed in the table below, was administered intraperitoneally to each hamster. All deaths occurred within 48 hours. The survivors all were alive one week later when examined again.
(§2) Following the above procedure, hamsters were given i.p. either 300 mg/kg of acetaminophen or 600 mg/kg BHT.

[4] = as above; assay type: in vivo, hamster; settings: hamster, in vivo, ip; i.p. mixture of 300 mg/kg acetaminophen and 600 mg/kg BHT; within 24 hours; read-out: deaths
Procedure: as §1, §2

mice [5] = settings: administered up to one hour after acute toxic amounts of acetaminophen; cited from earlier work
mice [6] = settings: cited from earlier work
hamsters [7] = assay: animal or person; assay type: in vivo, hamster; settings: for % Deaths: deaths within 48 hours; for hamsters protected from the otherwise lethal dosage of acetaminophen: acetaminophen 600 mg/kg i.p.
Procedure: as §1

inbred mice = settings: suggested for humans from studies with inbred mice; cited from earlier work
humans = settings: in vivo; cited from earlier work
[8] = system: hepatotoxicity after an overdose of acetaminophen; settings: administered within 16 hours after an overdose of acetaminophen; clinical study; cited from earlier work
[9] = system: man and experimental animals; settings: cited from earlier work
[10] = system: acetaminophen hepatotoxicity; settings: cited from earlier work; for effect on acetaminophen hepatotoxicity: J. Kelleher et al.
man = settings: vitamin C with acetaminophen, cited from earlier work
vitamin E deficient rats = settings: cited from earlier work
[11] = i.p. mixture of 300 mg/kg acetaminophen and 100 mg/kg BHA, all hamsters
[12] = acetaminophen 300 mg/kg i.p. alone

With `COc1ccc(O)c(C(C)(C)C)c1` [BHA, butylated hydroxyanisole] the deaths (hamsters [1]; BHA 100-300 mg/kg i.p. alone) was “no deaths occurred”, the incidence of deaths (hamsters [1]; higher amounts of BHA (than 100 mg/kg) with acetaminophen) was “higher incidence of deaths” and the survival (hamsters [1]; i.p. mixture of 300 mg/kg acetaminophen and 100 mg/kg BHA) was “most survive”. For the same molecule, the coma (hamsters [1]; [11]) was “go into a coma”, the time to coma (hamsters [1]; [11]) was 15 to 20 min and the “effect on hepatotoxicity of acetaminophen” value [2] was “profoundly enhance its hepatotoxicity”.
In the case of `Cc1cc(C(C)(C)C)c(O)c(C(C)(C)C)c1` [BHT, butylated hydroxytoluene], the deaths (hamsters [3]; BHT 600 mg/kg i.p. alone) is reported as “No deaths occurred”, the “enhancement of acetaminophen toxicity” value (hamsters [3]; i.p. mixture of 300 mg/kg acetaminophen and 600 mg/kg BHT) is reported as “profound enchancement of acetaminophen toxicity” and the mortality at 24 h [4] is reported as 100%. For the same molecule, the “effect on hepatotoxicity of acetaminophen” value [2] was “profoundly enhance its hepatotoxicity”.
In the case of `C[S+](C)[O-]` [Dimethyl sulfoxide], the “protection against the hepatotoxic effects of acetaminophen” value (mice [5]) is listed as “protect mice against the hepatotoxic effects of acetaminophen” and the “protection against CCl4 hepatotoxicity” value (mice [6]) is listed as “inability of DMSO to protect mice”.
In the case of `CC(=O)Nc1ccc(O)cc1` [acetaminophen], the “% Deaths” value (hamsters [7]; acetaminophen 600 mg/kg i.p. alone (methionine sulfoxide 0), 17 animals) is listed as 94%, the cataracts (inbred mice) is listed as “can cause cataracts in humans” and the deaths (hamsters [3]; [12]) is listed as “No deaths occurred”. For the same molecule, the deaths (hamsters [1]; [12]) was “no deaths occurred” and the hepatic necrosis (humans) was “can cause massive hepatic necrosis”.
For `CC(=O)N[C@@H](CS)C(=O)O` [acetylcysteine], the prevention of hepatotoxicity [8] is given as “effective in preventing hepatotoxicity”.
For `CCO` [alcohol], the “potentiation of acetaminophen hepatotoxicity” value (humans) is listed as “markedly potentiate the hepatotoxicity”.
In the case of `NCCS` [cysteamine], the “protection against the hepatotoxicity of acetaminophen” value (“protection against the hepatotoxicity” for short) [9] is given as “varying degrees of protection”.
In the case of `N[C@@H](CS)C(=O)O` [cysteine], the “protection against the hepatotoxicity” value [9] is given as “varying degrees of protection”.
For `C[S+]([O-])CC[C@H](N)C(=O)O` (stereo partly drawn) [methionine sulfoxide], the ED50 (hamsters [7]; Mesocricetus auratus, ip) was ~65 mg/kg, the “% Deaths” value (hamsters [7]; methionine sulfoxide 50 mg/kg i.p. with acetaminophen 600 mg/kg, 15 animals) was 60% and the “% Deaths” value (hamsters [7]; methionine sulfoxide 100 mg/kg i.p. with acetaminophen 600 mg/kg, 17 animals) was 23.5%. The “hamsters protected from the otherwise lethal dosage of acetaminophen” value (from here on “hamsters protected”) (hamsters [7]; methionine sulfoxide 100 mg/kg) was “over 75%”, the “% Deaths” value (hamsters [7]; methionine sulfoxide 200 mg/kg i.p. with acetaminophen 600 mg/kg, 17 animals) was 0% and the “hamsters protected” value (hamsters [7]; methionine sulfoxide 200 mg/kg) was “protected all of the hamsters”. The “% Deaths” value (hamsters [7]; methionine sulfoxide 400 mg/kg i.p. with acetaminophen 600 mg/kg, 8 animals) was 0%, the “hamsters protected” value (hamsters [7]; methionine sulfoxide 400 mg/kg) was “protected all of the hamsters” and the deaths (hamsters [3]; methionine sulfoxide 150 mg/kg concurrently with 300 mg/kg acetaminophen and 600 mg/kg BHT) was “no deaths occurred”. The “coma produced by the combination of acetaminophen and BHA” value (hamsters [1]; methionine sulfoxide treated, survivors) was “manifested even in the survivors” and the “dosage of BHA up to which hamsters are protected against the enhanced acetaminophen toxicity” value (hamsters [1]; methionine sulfoxide with acetaminophen and BHA, value is BHA dosage (up to about)) was “about 200 mg/kg”.
In the case of `CSCC[C@H](N)C(=O)O` [methionine], the “protection against the hepatotoxicity” value [9] is listed as “varying degrees of protection”.
In the case of `CCCOC(=O)c1cc(O)c(O)c(O)c1` [propyl gallate], the “effect on acetaminophen hepatotoxicity” value [10] is given as “reduce hepatotoxicity”.
In the case of `[Se]` [selenium], the “protection against the hepatotoxicity” value [9] is given as “varying degrees of protection”.
In the case of `O=C1O[C@H]([C@@H](O)CO)C(O)=C1O` [vitamin C, ascorbic acid], the “apparent half-life of drug (acetaminophen)” value (man; by rate of secretion in the urine) is given as “did not affect the apparent half-life”, the “excretion rate of acetaminophen sulfate” value (man) is given as “rapid and pronounced decrease” and the “protection against the hepatotoxic effects of acetaminophen” value ([10]; Raghuram et al.) is given as “may provide such protection”.
For `Cc1c(C)c2c(c(C)c1O)CCC(C)(CCCC(C)CCCC(C)CCCC(C)C)O2` (stereo not drawn) [vitamin E, α-tocopherol], the “protection against the hepatotoxicity” value [9] is listed as “varying degrees of protection”, the “protection against the hepatotoxic effects of acetaminophen” value (vitamin E deficient rats) is listed as “provides such protection” and the “effect on acetaminophen hepatotoxicity” value [10] is listed as “reduce hepatotoxicity”.
In the case of dimethylmercaptol, the “protection against the hepatotoxicity” value [9] is given as “varying degrees of protection”.
